Key:
[1] = tested on: Normal human dermal fibroblasts (NHDF-AD)
Experimental: Normal human dermal fibroblasts (NHDF-AD: product of Kurabo Industries, Ltd.) were inoculated onto a 24-well plate (1.0×10^4 cells/well), and incubated for four days in 1 ml of DMEM containing 10% FBS(vol/vol). Subsequently, the supernatant of the wells was replaced with 1 ml of fresh DMEM containing 10% FBS(vol/vol), and 5 μl of ethanol solution containing a predetermined concentration of tocopherol or 5 μl of ethanol was added to the concentrations shown in Tables 1 and 2, and […] of 0.045% hydroquinone solution was added, followed by incubation for 24 hours. Then, the supernatant of the wells were removed by replacement with 1 ml of medium, and the number of cells that survived was determined by WST-1 assay.

[2] = approximate ratio, reportedly; cited from earlier work
[3] = J. Act. Oxyg. Free Rad. 3:531-54; cited from earlier work

## Cc1c(O)cc2c(c1C)O[C@](C)(CCC[C@H](C)CCC[C@H](C)CCCC(C)C)CC2 [γ-tocopherol]
[1]
  hydroquinone-cytotoxicity-reducing activity (rank among tocopherols): second highest
  survival rate, times higher than that of Control 1: more than 2.3 times
[2]
  ratio of biological activities of α-, β-, γ-, and δ-tocopherols: ~4

## Cc1cc(O)cc2c1O[C@](C)(CCC[C@H](C)CCC[C@H](C)CCCC(C)C)CC2 [δ-tocopherol]
[1]
  hydroquinone-cytotoxicity-reducing activity (rank among tocopherols): highest
  survival rate compared with Control 1: remarkably higher survival rate
[2]
  ratio of biological activities of α-, β-, γ-, and δ-tocopherols: ~0.1
[3]
  antioxidant activity against oils and fats (rank): highest

## Cc1c(C)c2c(c(C)c1O)CC[C@@](C)(CCC[C@H](C)CCC[C@H](C)CCCC(C)C)O2 [α-tocopherol]
[1]
  survival rate, times higher than that of Control 1: more than 1.3 times
[2]
  ratio of biological activities of α-, β-, γ-, and δ-tocopherols: approximately 100
[3]
  antioxidant activity against oils and fats (rank): lowest

## Cc1cc(O)c(C)c2c1O[C@](C)(CCC[C@H](C)CCC[C@H](C)CCCC(C)C)CC2 [β-tocopherol]
[2]
  ratio of biological activities of α-, β-, γ-, and δ-tocopherols: ~24

Reference: patent publication US20070254947A1, “Composition for external use” (ROHTO PHARMACEUTICAL CO., LTD., priority 2006, published 2007)
